Source: ChEMBL document CHEMBL3232726, “Discovery of 2-oxo-1,2-dihydrobenzo[cd]indole-6-sulfonamide derivatives as new RORγ inhibitors using virtual screening, synthesis and biological evaluation” (Eur J Med Chem, 2014)

Assays:
[1] = target: T1, Nuclear receptor ROR-gamma (Homo sapiens, UniProt P51449); test: Antagonist activity at full-length RORgamma (unknown origin) expressed in 293T cells after 24 hrs by luciferase reporter gene assay; assay type: cell-based
T1 sequence (P51449 whole entry): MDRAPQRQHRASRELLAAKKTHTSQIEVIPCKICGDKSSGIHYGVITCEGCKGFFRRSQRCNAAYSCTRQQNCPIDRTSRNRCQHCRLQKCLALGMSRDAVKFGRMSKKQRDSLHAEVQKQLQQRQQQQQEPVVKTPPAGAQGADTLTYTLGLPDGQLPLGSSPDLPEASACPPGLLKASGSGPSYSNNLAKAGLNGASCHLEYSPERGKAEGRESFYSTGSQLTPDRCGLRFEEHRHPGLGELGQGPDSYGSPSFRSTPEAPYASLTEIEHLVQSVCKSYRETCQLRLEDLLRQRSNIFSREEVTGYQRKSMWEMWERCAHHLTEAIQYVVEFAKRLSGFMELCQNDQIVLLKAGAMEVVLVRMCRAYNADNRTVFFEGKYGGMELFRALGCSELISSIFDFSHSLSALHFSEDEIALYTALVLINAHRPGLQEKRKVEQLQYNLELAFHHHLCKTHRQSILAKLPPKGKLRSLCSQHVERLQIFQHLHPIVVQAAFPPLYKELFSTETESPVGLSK

[2] = target: T1, Nuclear receptor ROR-gamma; test: Antagonist activity at Gal4-fused RORgamma (unknown origin) expressed in 293T cells after 24 hrs by luciferase reporter gene assay; assay type: cell-based
[3] = target: T1, Nuclear receptor ROR-gamma; test: Antagonist activity at human His6-tagged RORgamma ligand binding domain (262 to 507 aa) assessed as inhibition of SRC1-4 co-activator peptide recruitment by luminescence-based AlphaScreen assay

Compound `CCN1C(=O)c2cccc3c(S(=O)(=O)N(C(=O)c4ccncc4)c4ccc(OC)cc4)ccc1c23` has an IC50 [1] of 0.08 µM, an IC50 [2] of 0.09 µM and an IC50 [3] of 6.47 µM.
`CCN1C(=O)c2cccc3c(S(=O)(=O)NCC4CCN(C(C)=O)CC4)ccc1c23` showed an IC50 [1] of 0.59 µM and an IC50 [2] of 6.03 µM.
In the case of `CCN1C(=O)c2cccc3c(S(=O)(=O)NCc4ccc(OC)cc4)ccc1c23`, the IC50 [3] is reported as 174 µM.
For `C=CCn1c(CCCN2C(=O)c3cccc4cccc(c34)C2=O)nnc1SCC(=O)Nc1ccc(S(N)(=O)=O)cc1`, the IC50 [3] was 142 µM.
In the case of `C=CCn1c(COc2ccc(Cl)cc2)nnc1SCC(=O)N/N=C/c1cccc(O)c1`, the IC50 [3] is reported as 56.6 µM.
`CCN1C(=O)c2cccc3c(S(=O)(=O)Nc4ccccc4C(=O)c4ccccc4)ccc1c23` was tested, and the IC50 [3] was 156 µM.
With `NC(=O)c1ccc(NC(=O)c2cccc(COc3ccc(Cl)cc3)c2)cc1` the IC50 [3] was 168 µM.
